Source: patent US10174067B2, “Type of cytidine derivative and application thereof” (priority 2014, dated 2019)
Marks after values point to notes of the source that are not given here.

Key:
[1] = test system: HCT-116 colon cancer xenografts; assay: Tumor growth inhibition of HCT-116 colon cancer xenografts in tumor-bearing nude mice (tumor volume, TGI %, RTV, T/C %); format: in vivo, Balb/c Nude mice; details: for T/C % (relative tumor proliferation rate): dosage 400 mg/kg (G10-G16 study);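 for T/C % (relative tumor proliferation rate): control C is the vehicle-treated model control group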
Protocol: 4.1 Tumor cells: colon cancer HCT-116 cells, purchased from the Institute of Cell Biology, Chinese Academy of Sciences. The cells were incubated by F-12 medium (containing 10% FBS) in carbon dioxide incubator at 37° C. and in saturated humidity, with 5% CO2 and 95% air in volume fraction. Before inoculation, the cells at logarithmic phase were taken, and digested with 0.25% trypsin, washed once with PBS and resuspended in PBS for counting. The cells were resuspended in serum-free medium and adjusted to about 3×10^7 cell/mL.
The grouping is as follows:
The formations of tumor at the inoculation site of each group of nude mice were observed. The diameter of tumor nodule (D) was measured three times a week with round hole ruler, and the volume of tumor nodule (V) was calculated according to the following formula: […].
Anti-tumor activity was evaluated by tumor growth inhibition rate TGI (%) and relative tumor proliferation rate T/C (%).
The relative tumor volume (RTV) was calculated as: RTV=Vt/V0, where V0 was the tumor volume when they were grouped and administered, and Vt was the tumor volume at the time of measurement.
The relative proliferation rate T/C (%) was calculated as: […].
TRTV: RTV of the treatment group; CRTV: RTV of the control group.
P<0.05 was considered as significant difference.

[2] = Protocol: To determine the growth inhibition effect and toxicity of the cytidine derivative samples of the present invention on the transplanted tumor of nude mice bearing colon cancer HCT-116.
The corresponding amount of test substance was taken in a 5 mL glass tube and dissolved in ethanol with a 5 mm magnetic stirrer for stirring. After dissolving completely, Cremophor EL was added with continuous stirring. The marked amount of saline was added and mixed evenly before use. The volume ratio of ethanol, Cremophor EL, and physiological saline was 5:5:90.
Varieties and lines; Balb/c Nude mice; level: SPF; sex: female.
4.2 Animal inoculation and grouping: Each nude mouse was inoculated subcutaneously with 0.1 mL of cell suspension (3×10^6 cell/mouse) at right side of hind limb in a sterile stale. When the tumor grew to about 60-150 mm^3, the nude mice with similar tumor volume and desirable shape were selected (it would be better to select single spherical shape, no irregular shape or multiple tumors grouped together) for grouping, 6 mice a group. The grouping is as follows:
The control group, namely the model control group, was injected with a mixture of ethanol, Cremophor EL, and saline (5:5:90).
Those mice were weighed three times a week.
All clinical symptoms of each animal should be recorded at the beginning of the test and during the test. The observations should be made at the same time each day.
An animal would be killed by CO2 when its weight loss was more than 20%, when it was about to die, or when its tumor volume exceeded 2800 mm^3. The tumor was separated and weighed, and the animal was autopsied and observed to evaluate and record whether there were pathological changes in the organs.
The data were expressed as Mean±SEM unless specially provided; Non-pairing T test was performed for the data between the two groups. P<0.05 was considered as significant difference.

[3] = Day 0, G10-G16 groups, single IP 400 mg/kg
[4] = Day 0, G10-G16 groups, single IP 400 mg/kg, Mean±SEM
[5] = Day 1, G10-G16 groups, single IP 400 mg/kg, Mean±SEM
[6] = Day 2, G10-G16 groups, single IP 400 mg/kg, Mean±SEM
[7] = Day 4, G10-G16 groups, single IP 400 mg/kg, Mean±SEM
[8] = Day 7, G10-G16 groups, single IP 400 mg/kg, Mean±SEM
[9] = Day 9, G10-G16 groups, single IP 400 mg/kg, Mean±SEM
[10] = Day 11, G10-G16 groups, single IP 400 mg/kg, Mean±SEM
[11] = Day 14, G10-G16 groups, single IP 400 mg/kg, Mean±SEM
[12] = Day 16, G10-G16 groups, single IP 400 mg/kg, Mean±SEM
[13] = Day 18, G10-G16 groups, single IP 400 mg/kg, Mean±SEM
[14] = Day 21, G10-G16 groups, single IP 400 mg/kg, Mean±SEM
[15] = Day 23, G10-G16 groups, single IP 400 mg/kg, Mean±SEM
[16] = Day 25, G10-G16 groups, single IP 400 mg/kg, Mean±SEM
[17] = Day 28, G10-G16 groups, single IP 400 mg/kg, Mean±SEM
[18] = Day 30, G10-G16 groups, single IP 400 mg/kg, Mean±SEM

SMILES: O=C(COc1nc(Cl)c(Cl)cc1Cl)OC[C@H]1O[C@@H](n2cc(Br)c(NC(=O)OCc3ccccc3)nc2=O)C(F)(F)C1O (stereo partly shown) [Compound G10]
- Day 0 (RTV) [1, 3]: 1.00
- Tumor volume, Day 0 [1, 4]: 83.23 ± 12.39 mm^3
- T/C % (relative tumor proliferation rate) ([1]; Day 0): 0.00%
- Day 1 (TGI %) ([1]; Day 1, G10-G16 groups, single IP 400 mg/kg): 50.51%
- Day 1 (RTV) [1, 5]: 1.06 ± 0.12
- Tumor volume, Day 1 [1, 5]: 89.33 ± 14.35** mm^3
- T/C % (relative tumor proliferation rate) ([1]; Day 1): 63.00%
- Day 2 (TGI %) ([1]; Day 2, G10-G16 groups, single IP 400 mg/kg): 51.72%
- Day 2 (RTV) [1, 6]: 1.27 ± 0.16
- Tumor volume, Day 2 [1, 6]: 108.22 ± 18.22** mm^3
- T/C % (relative tumor proliferation rate) ([1]; Day 2): 61.29%
- Day 4 (TGI %) ([1]; Day 4, G10-G16 groups, single IP 400 mg/kg): 48.03%
- Day 4 (RTV) [1, 7]: 1.83 ± 0.20
- Tumor volume, Day 4 [1, 7]: 154.33 ± 27.49** mm^3
- T/C % (relative tumor proliferation rate) ([1]; Day 4): 66.28%
- Day 7 (TGI %) ([1]; Day 7, G10-G16 groups, single IP 400 mg/kg): 46.09%
- Day 7 (RTV) [1, 8]: 2.82 ± 0.25
- Tumor volume, Day 7 [1, 8]: 233.13 ± 37.06** mm^3
- T/C % (relative tumor proliferation rate) ([1]; Day 7): 69.09%
- Day 9 (TGI %) ([1]; Day 9, G10-G16 groups, single IP 400 mg/kg): 33.35%
- Day 9 (RTV) [1, 9]: 4.84 ± 0.55
- Tumor volume, Day 9 [1, 9]: 393.47 ± 68.53 mm^3
- T/C % (relative tumor proliferation rate) ([1]; Day 9): 86.30%
- Day 11 (TGI %) ([1]; Day 11, G10-G16 groups, single IP 400 mg/kg): 38.55%
- Day 11 (RTV) [1, 10]: 7.60 ± 0.85
- Tumor volume, Day 11 [1, 10]: 599.83 ± 84* mm^3
- T/C % (relative tumor proliferation rate) ([1]; Day 11): 82.36%
- Day 14 (TGI %) ([1]; Day 14, G10-G16 groups, single IP 400 mg/kg): 30.82%
- Day 14 (RTV) [1, 11]: 13.37 ± 2.23
- Tumor volume, Day 14 [1, 11]: 996.32 ± 91.77* mm^3
- T/C % (relative tumor proliferation rate) ([1]; Day 14): 96.62%
- Day 16 (TGI %) ([1]; Day 16, G10-G16 groups, single IP 400 mg/kg): 24.07%
- Day 16 (RTV) [1, 12]: 18.63 ± 3.27
- Tumor volume, Day 16 [1, 12]: 1375.20 ± 109.23* mm^3
- T/C % (relative tumor proliferation rate) ([1]; Day 16): 107.93%
- Day 18 (TGI %) ([1]; Day 18, G10-G16 groups, single IP 400 mg/kg): 18.11%
- Day 18 (RTV) [1, 13]: 22.45 ± 4.24
- Tumor volume, Day 18 [1, 13]: 1636.39 ± 114.98 mm^3
- T/C % (relative tumor proliferation rate) ([1]; Day 18): 117.59%
- Day 21 (TGI %) ([1]; Day 21, G10-G16 groups, single IP 400 mg/kg): 14.51%
- Day 21 (RTV) [1, 14]: 29.09 ± 6.00
- Tumor volume, Day 21 [1, 14]: 2090.18 ± 124.45 mm^3
- T/C % (relative tumor proliferation rate) ([1]; Day 21): 124.28%
- Day 23 (TGI %) ([1]; Day 23, G10-G16 groups, single IP 400 mg/kg): 10.21%
- Day 23 (RTV) [1, 15]: 29.56 ± 5.99
- Tumor volume, Day 23 [1, 15]: 2120.63 ± 111.71 mm^3
- T/C % (relative tumor proliferation rate) ([1]; Day 23): 149.49%
- Day 25 (TGI %) ([1]; Day 25, G10-G16 groups, single IP 400 mg/kg): 11.18%
- Day 25 (RTV) [1, 16]: 31.95 ± 6.61
- Tumor volume, Day 25 [1, 16]: 2293.73 ± 132.31 mm^3
- T/C % (relative tumor proliferation rate) ([1]; Day 25): 147.80%
- Day 28 (TGI %) ([1]; Day 28, G10-G16 groups, single IP 400 mg/kg): 10.61%
- Day 28 (RTV) [1, 17]: 35.86 ± 7.35
- Tumor volume, Day 28 [1, 17]: 2404.00 ± 127.93 mm^3
- T/C % (relative tumor proliferation rate) ([1]; Day 28): 169.72%
- Day 30 (TGI %) ([1]; Day 30, G10-G16 groups, single IP 400 mg/kg): 10.17%
- Day 30 (RTV) [1, 18]: 40.27 ± 10.35
- Tumor volume, Day 30 [1, 18]: 2520.69 ± 108.41 mm^3
- T/C % (relative tumor proliferation rate) ([1]; Day 30): 162.31%
- Weight change rate, Day 0 [2, 3]: 0.00%
- Weight of mice, Day 0 [2, 4]: 19.90 ± 0.17 g
- Weight change rate, Day 1 [2, 5]: −1.76 ± 0.49%
- Weight of mice, Day 1 [2, 5]: 19.55 ± 0.21 g
- Weight change rate, Day 2 [2, 6]: −0.85 ± 0.43%
- Weight of mice, Day 2 [2, 6]: 19.73 ± 0.25 g
- Weight change rate, Day 4 [2, 7]: 1.94 ± 0.91 %
- Weight of mice, Day 4 [2, 7]: 20.28 ± 0.19 g
- Weight change rate, Day 7 [2, 8]: 0.61 ± 0.70 %
- Weight of mice, Day 7 [2, 8]: 20.02 ± 0.09 g
- Weight change rate, Day 9 [2, 9]: 3.04 ± 1.24 %
- Weight of mice, Day 9 [2, 9]: 20.50 ± 0.24 g
- Weight change rate, Day 11 [2, 10]: 2.77 ± 1.51%
- Weight of mice, Day 11 [2, 10]: 20.45 ± 0.32 g
- Weight change rate, Day 14 [2, 11]: −1.53 ± 2.52%
- Weight of mice, Day 14 [2, 11]: 19.60 ± 0.57 g
- Weight change rate, Day 16 [2, 12]: −2.19 ± 3.22%
- Weight of mice, Day 16 [2, 12]: 19.47 ± 0.68 g
- Weight change rate, Day 18 [2, 13]: −1.80 ± 3.13%
- Weight of mice, Day 18 [2, 13]: 19.55 ± 0.70 g
- Weight change rate, Day 21 [2, 14]: −2.23 ± 3.14%
- Weight of mice, Day 21 [2, 14]: 19.47 ± 0.72 g
- Day 22 Mortality ([2]; Day 22, single IP dose (mg/kg)): 0%
- Weight change rate, Day 23 [2, 15]: −2.41 ± 3.42%
- Weight of mice, Day 23 [2, 15]: 19.43 ± 0.78 g
- Weight change rate, Day 25 [2, 16]: −1.80 ± 3.06%
- Weight of mice, Day 25 [2, 16]: 19.55 ± 0.69 g
- Weight change rate, Day 28 [2, 17]: −1.77 ± 2.66%
- Weight of mice, Day 28 [2, 17]: 19.54 ± 0.67 g
- Weight change rate, Day 30 [2, 18]: −1.95 ± 3.04%
- Weight of mice, Day 30 [2, 18]: 19.55 ± 0.79 g
- clinical symptoms ([2]; after single IP dose, compared with model control group): no significant differences in clinical symptoms
